Data: article PMC5951806, “Rapid labelling and covalent inhibition of intracellular native proteins using ligand-directed N-acyl-N-alkyl sulfonamide” (Nature Communications, 2018)

What was measured:
Assay in all cases: TMT LC-MSMS of 11-labelled proteins
Type in all cases: cell-based
[1] = molecular target: T1, ADP/ATP translocase 3 (SLC25A6) (Homo sapiens, UniProt P12236)
T1 sequence (P12236 1-298): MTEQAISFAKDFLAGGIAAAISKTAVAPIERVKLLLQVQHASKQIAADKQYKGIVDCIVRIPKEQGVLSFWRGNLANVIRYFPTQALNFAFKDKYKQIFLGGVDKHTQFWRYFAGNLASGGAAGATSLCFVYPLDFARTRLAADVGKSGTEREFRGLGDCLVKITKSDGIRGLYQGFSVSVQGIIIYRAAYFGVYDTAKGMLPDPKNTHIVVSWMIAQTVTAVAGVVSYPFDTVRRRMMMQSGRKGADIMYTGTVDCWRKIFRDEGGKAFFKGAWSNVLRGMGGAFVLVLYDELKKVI

[2] = molecular target: glyceraldehyde-3-phosphate dehydrogenase (GAPDH) (Homo sapiens, UniProt P04406)
Chain of glyceraldehyde-3-phosphate dehydrogenase (GAPDH) (P04406 whole entry): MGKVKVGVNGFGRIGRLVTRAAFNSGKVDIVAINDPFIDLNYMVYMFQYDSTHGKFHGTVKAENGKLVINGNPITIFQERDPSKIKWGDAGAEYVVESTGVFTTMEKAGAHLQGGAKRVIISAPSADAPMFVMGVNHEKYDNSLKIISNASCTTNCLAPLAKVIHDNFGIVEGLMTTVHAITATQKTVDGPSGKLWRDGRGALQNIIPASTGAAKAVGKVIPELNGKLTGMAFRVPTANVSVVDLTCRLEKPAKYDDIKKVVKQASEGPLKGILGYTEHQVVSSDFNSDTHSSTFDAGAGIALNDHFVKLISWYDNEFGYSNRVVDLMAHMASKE

[3] = molecular target: T2, Aldehyde dehydrogenase family 1 member A3 (ALDH1A3) (Homo sapiens, UniProt P47895)
T2 sequence (P47895 1-512): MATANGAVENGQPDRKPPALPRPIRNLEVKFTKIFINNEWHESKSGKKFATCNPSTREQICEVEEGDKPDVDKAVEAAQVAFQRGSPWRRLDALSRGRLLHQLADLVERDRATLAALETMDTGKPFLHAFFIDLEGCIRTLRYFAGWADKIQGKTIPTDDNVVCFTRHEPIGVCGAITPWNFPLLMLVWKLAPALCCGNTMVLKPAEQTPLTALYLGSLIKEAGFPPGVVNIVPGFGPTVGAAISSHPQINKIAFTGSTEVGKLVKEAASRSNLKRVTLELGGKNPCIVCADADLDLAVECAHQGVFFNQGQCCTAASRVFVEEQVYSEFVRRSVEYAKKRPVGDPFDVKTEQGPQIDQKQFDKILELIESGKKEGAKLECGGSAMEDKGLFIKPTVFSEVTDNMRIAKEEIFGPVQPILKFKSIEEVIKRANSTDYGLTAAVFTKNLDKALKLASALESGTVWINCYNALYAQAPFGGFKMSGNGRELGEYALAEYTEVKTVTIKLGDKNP

[4] = sheet Exp1, SKBR3 cells, 11 0.5 µM 3 h vs DMSO
[5] = sheet Exp1, SKBR3 cells, 11 0.5 µM 3 h vs with PU-H71 10 µM
[6] = sheet Merged, SKBR3 cells, 11 0.5 µM 3 h vs DMSO
[7] = sheet Merged, SKBR3 cells, 11 0.5 µM 3 h vs with PU-H71 10 µM

- Abundance Ratio: (11) / (11 with PU-H71) ([1]; Exp3, SLC25A6): 0.576
- Abundance Ratio: (11) / (DMSO) ([1]; Exp3, SLC25A6): 5.78
- Abundances (Grouped): 11 ([1]; Exp3, SLC25A6): 626.5
- Abundances (Grouped): 11 with PU-H71 ([1]; Exp3, SLC25A6): 1087.4
- Abundance Ratio: (11) / (DMSO) [1, 4]: 5.287
- Abundance Ratio: (11) / (11 with PU-H71) [1, 5]: 0.613
- Abundance Ratio: (11) / (11 with PU-H71) ([1]; sheet Exp2, SLC25A6): 0.601
- Abundance Ratio: (11) / (DMSO) ([1]; sheet Exp2, SLC25A6): 6.595
- Abundances (Grouped): 11 ([1]; sheet Exp2, SLC25A6): 579
- Abundances (Grouped): 11 with PU-H71 ([1]; sheet Exp2, SLC25A6): 963.9
- Abundance Ratio: (11) / (DMSO) [1, 6]: 5.939
- Abundance Ratio: (11) / (11 with PU-H71) [1, 7]: 0.586
- Abundance Ratio: (11) / (11 with PU-H71) ([2]; Exp3, GAPDH): 0.73
- Abundance Ratio: (11) / (DMSO) ([2]; Exp3, GAPDH): 1.944
- Abundances (Grouped): 11 ([2]; Exp3, GAPDH): 248.2
- Abundances (Grouped): 11 with PU-H71 ([2]; Exp3, GAPDH): 340
- Abundance Ratio: (11) / (DMSO) [2, 4]: 2.11
- Abundance Ratio: (11) / (11 with PU-H71) [2, 5]: 0.674
- Abundance Ratio: (11) / (11 with PU-H71) ([2]; sheet Exp2, GAPDH): 0.789
- Abundance Ratio: (11) / (DMSO) ([2]; sheet Exp2, GAPDH): 3.189
- Abundances (Grouped): 11 ([2]; sheet Exp2, GAPDH): 133
- Abundances (Grouped): 11 with PU-H71 ([2]; sheet Exp2, GAPDH): 168.6
- Abundance Ratio: (11) / (DMSO) [2, 6]: 2.267
- Abundance Ratio: (11) / (11 with PU-H71) [2, 7]: 0.732
- Abundance Ratio: (11) / (11 with PU-H71) ([3]; Exp3, ALDH1A3): 0.892
- Abundance Ratio: (11) / (DMSO) ([3]; Exp3, ALDH1A3): 4.34
- Abundances (Grouped): 11 ([3]; Exp3, ALDH1A3): 42.1
- Abundances (Grouped): 11 with PU-H71 ([3]; Exp3, ALDH1A3, with PU-H71): 47.2
- Abundance Ratio: (11) / (DMSO) [3, 4]: 5.076
- Abundance Ratio: (11) / (11 with PU-H71) [3, 5]: 0.894
- Abundance Ratio: (11) / (DMSO) [3, 6]: 4.694
- Abundance Ratio: (11) / (11 with PU-H71) [3, 7]: 0.893
Compound: CC(=O)Oc1ccc2c(c1)Oc1cc(OC(C)=O)ccc1C21OC(=O)c2cc(C(=O)NCCOCCOCCNC(=O)CCCC(=O)N(CC#N)S(=O)(=O)c3ccc(C(=O)NCCCn4c(Sc5cc6c(cc5I)OCO6)nc5c(N)ncnc54)cc3)ccc21 [compound 11]
